Measurements: patent US9233968B1, “Kinase inhibitors” (Allergan, Inc., priority 2014, dated 2016)

Experiments:
[1] = molecular target: VEGFR2 (cytoplasmic domain KDR protein) (Homo sapiens (Human), UniProt P35968); assay: VEGFR2 Kinase Assay (biochemical KDR kinase assay); conditions: 2.7 μM ATP, poly-Glu-Tyr substrate; read-out: Enzyme VEGFR2 IC50
Method: Biochemical KDR kinase assays were performed in 96 well microtiter plates that were coated overnight with 75 μg/well of poly-Glu-Tyr (4:1) in 10 mM Phosphate Buffered Saline (PBS), pH 7.4. The coated plates were washed with 2 mls per well PBS+0.05% Tween-20 (PBS-T), blocked by incubation with PBS containing 1% BSA, then washed with 2 mls per well PBS-T prior to starting the reaction. Reactions were carried out in 100 μL reaction volumes containing 2.7 μM ATP in kinase buffer (50 mM Hepes buffer pH 7.4, 20 mM MgCl2, 0.1 mM MnCl2 and 0.2 mM Na3VO4). […] Reactions were initiated by the addition 20 μl per well of kinase buffer containing 200-300 ng purified cytoplasmic domain KDR protein (BPS Bioscience, San Diego, Calif.). Following a 15 minute incubation at 30° C., the reactions were washed 2 mls per well PBS-T. 100 μl of a monoclonal anti-phosphotyrosine antibody-peroxidase conjugate diluted 1:10,000 in PBS-T was added to the wells for 30 minutes. Following a 2 mls per well wash with PBS-Tween-20, 100 μl of O-Phenylenediamine Dihydrochloride in phosphate-citrate buffer, containing urea hydrogen peroxide, was added to the wells for 7-10 minutes as a colorimetric substrate for the peroxidase. The reaction was terminated by the addition of 100 μl of 2.5N H2SO4 to each well and read using a microplate ELISA reader set at 492 nm. IC50 values for compound inhibition were calculated directly from graphs of optical density (arbitrary units) versus compound concentration following subtraction of blank values.

[2] = molecular target: PDGFRβ (cytoplasmic domain PDGFR-b protein) (Homo sapiens (Human), UniProt P09619); assay: PDGFRβ Kinase Assay; assay type: biochemical; conditions: 36 μM ATP, poly-Glu-Tyr substrate; read-out: Enzyme PDGFRβ IC50
Method: Biochemical PDGFRβ kinase assays were performed in 96 well microtiter plates that were coated overnight with 75 μg of poly-Glu-Tyr (4:1) in 10 mM Phosphate Buffered Saline (PBS), pH 7.4. The coated plates were washed with 2 mls per well PBS+0.05% Tween-20 (PBS-T), blocked by incubation with PBS containing 1% BSA, then washed with 2 mls per well PBS-T prior to starting the reaction. […] Reactions were initiated by the addition 20 μl per well of kinase buffer containing 200-300 ng purified cytoplasmic domain PDGFR-b protein (Millipore). Following a 60 minute incubation at 30° C., the reactions were washed 2 mls per well PBS-T. 100 μl of a monoclonal anti-phosphotyrosine antibody-peroxidase conjugate diluted 1:10,000 in PBS-T was added to the wells for 30 minutes. Following a 2 mls per well wash with PBS-Tween-20, 100 μl of O-Phenylenediamine Dihydrochloride in phosphate-citrate buffer, containing urea hydrogen peroxide, was added to the wells for 7-10 minutes as a colorimetric substrate for the peroxidase. […] IC50 values for compound inhibition were calculated directly from graphs of optical density (arbitrary units) versus compound concentration following subtraction of blank values.

VEGFR2 = VEGFR2 (Homo sapiens (Human), UniProt P35968); assay: VEGFR2 Cellular Assay (FLIPR, VEGF induced intracellular calcium in HUVEC); assay type: cell-based; conditions: VEGF165 stimulation 10 ng/mL, read-out: Receptor VEGFR2 IC50
Method: (§1) VEGFR2 Cellular Assay Automated FLIPR (Fluorometric Imaging Plate Reader) technology was used to screen for inhibitors of VEGF induced increases in intracellular calcium levels in fluorescent dye loaded endothelial cells. HUVEC (human umbilical vein endothelial cells) (Clonetics) were seeded in 384-well fibronectin coated black-walled plates overnight at 37° C./5% CO2. Cells were loaded with calcium indicator Fluo-4 for 45 minutes at 37° C. Cells were washed 2 times (Elx405, Biotek Instruments) to remove extracellular dye. For screening, cells were pre-incubated with test agents for 30 minutes, at a single concentration (10 μM) or at concentrations ranging from 0.0001 to 10.0 μM followed by VEGF165 stimulation (10 ng/mL). […] Data were generated by determining max-min fluorescence levels for unstimulated, stimulated, and drug treated samples. IC50 values for test compounds were calculated from % inhibition of VEGF stimulated responses in the absence of inhibitor.

PDGFRβ = PDGFRβ (Homo sapiens (Human), UniProt P09619); assay: PDGFRβ Cellular Assay (FLIPR, PDGF-induced intracellular calcium in NHDF-Ad); assay type: cell-based; conditions: PDGF-BB stimulation 30 ng/mL, read-out: Receptor PDGFRβ IC50
Method: as §1, with “Automated” for “VEGFR2 Cellular Assay Automated”, “of PDGF-induced” for “of VEGF induced”, “cells. NHDF-Ad (Normal Human Dermal Fibroblasts, Adult; Lonza)” for “cells. HUVEC (human umbilical vein endothelial cells) (Clonetics)”, “by PDGF-BB” for “by VEGF165”, “stimulation (30” for “stimulation (10”, “of PDGF-BB” for “of VEGF”

Sequence of VEGFR2 (cytoplasmic domain KDR protein) (P35968 786-1356): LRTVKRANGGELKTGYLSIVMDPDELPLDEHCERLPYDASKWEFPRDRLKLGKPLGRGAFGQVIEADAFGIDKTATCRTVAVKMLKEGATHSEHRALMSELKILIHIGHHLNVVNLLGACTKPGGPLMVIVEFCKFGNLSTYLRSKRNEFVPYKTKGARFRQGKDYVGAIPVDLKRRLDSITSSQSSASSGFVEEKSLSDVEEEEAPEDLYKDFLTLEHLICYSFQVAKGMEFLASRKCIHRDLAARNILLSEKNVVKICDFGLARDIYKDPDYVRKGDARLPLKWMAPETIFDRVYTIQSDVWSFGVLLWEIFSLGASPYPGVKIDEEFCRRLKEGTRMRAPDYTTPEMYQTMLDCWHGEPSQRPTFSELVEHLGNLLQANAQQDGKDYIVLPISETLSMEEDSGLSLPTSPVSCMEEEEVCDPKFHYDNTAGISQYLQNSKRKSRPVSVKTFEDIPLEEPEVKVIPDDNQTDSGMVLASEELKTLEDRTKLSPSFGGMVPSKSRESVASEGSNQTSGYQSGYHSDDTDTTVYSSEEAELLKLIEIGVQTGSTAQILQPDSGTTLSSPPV
Sequence of PDGFRβ (P09619 33-1106): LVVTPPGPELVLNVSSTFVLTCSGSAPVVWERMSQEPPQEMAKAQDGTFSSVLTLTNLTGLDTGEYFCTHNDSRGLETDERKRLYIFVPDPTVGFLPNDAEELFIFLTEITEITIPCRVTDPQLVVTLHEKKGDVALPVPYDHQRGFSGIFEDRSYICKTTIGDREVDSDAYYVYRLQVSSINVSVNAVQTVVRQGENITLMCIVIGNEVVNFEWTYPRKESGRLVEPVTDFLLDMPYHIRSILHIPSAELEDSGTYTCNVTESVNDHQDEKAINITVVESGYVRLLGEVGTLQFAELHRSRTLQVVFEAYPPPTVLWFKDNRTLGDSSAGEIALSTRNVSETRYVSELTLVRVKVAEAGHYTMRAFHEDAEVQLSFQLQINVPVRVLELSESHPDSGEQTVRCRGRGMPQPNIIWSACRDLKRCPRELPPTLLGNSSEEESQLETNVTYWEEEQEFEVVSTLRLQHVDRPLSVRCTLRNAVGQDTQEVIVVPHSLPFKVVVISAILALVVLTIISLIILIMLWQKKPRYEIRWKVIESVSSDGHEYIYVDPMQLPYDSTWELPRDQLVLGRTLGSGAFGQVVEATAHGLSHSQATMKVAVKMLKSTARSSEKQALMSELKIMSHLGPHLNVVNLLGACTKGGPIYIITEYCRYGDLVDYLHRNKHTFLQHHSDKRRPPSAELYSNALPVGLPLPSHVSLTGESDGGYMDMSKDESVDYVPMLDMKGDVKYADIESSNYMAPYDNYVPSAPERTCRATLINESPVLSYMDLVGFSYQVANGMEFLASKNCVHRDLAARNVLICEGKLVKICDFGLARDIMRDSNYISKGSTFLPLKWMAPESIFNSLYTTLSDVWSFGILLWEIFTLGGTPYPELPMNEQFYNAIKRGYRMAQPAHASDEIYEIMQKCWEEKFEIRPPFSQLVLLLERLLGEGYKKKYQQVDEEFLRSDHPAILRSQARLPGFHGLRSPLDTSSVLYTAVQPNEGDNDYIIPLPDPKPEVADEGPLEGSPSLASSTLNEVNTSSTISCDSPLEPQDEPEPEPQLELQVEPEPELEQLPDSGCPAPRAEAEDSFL
Sequence of VEGFR2 (P35968 20-1356): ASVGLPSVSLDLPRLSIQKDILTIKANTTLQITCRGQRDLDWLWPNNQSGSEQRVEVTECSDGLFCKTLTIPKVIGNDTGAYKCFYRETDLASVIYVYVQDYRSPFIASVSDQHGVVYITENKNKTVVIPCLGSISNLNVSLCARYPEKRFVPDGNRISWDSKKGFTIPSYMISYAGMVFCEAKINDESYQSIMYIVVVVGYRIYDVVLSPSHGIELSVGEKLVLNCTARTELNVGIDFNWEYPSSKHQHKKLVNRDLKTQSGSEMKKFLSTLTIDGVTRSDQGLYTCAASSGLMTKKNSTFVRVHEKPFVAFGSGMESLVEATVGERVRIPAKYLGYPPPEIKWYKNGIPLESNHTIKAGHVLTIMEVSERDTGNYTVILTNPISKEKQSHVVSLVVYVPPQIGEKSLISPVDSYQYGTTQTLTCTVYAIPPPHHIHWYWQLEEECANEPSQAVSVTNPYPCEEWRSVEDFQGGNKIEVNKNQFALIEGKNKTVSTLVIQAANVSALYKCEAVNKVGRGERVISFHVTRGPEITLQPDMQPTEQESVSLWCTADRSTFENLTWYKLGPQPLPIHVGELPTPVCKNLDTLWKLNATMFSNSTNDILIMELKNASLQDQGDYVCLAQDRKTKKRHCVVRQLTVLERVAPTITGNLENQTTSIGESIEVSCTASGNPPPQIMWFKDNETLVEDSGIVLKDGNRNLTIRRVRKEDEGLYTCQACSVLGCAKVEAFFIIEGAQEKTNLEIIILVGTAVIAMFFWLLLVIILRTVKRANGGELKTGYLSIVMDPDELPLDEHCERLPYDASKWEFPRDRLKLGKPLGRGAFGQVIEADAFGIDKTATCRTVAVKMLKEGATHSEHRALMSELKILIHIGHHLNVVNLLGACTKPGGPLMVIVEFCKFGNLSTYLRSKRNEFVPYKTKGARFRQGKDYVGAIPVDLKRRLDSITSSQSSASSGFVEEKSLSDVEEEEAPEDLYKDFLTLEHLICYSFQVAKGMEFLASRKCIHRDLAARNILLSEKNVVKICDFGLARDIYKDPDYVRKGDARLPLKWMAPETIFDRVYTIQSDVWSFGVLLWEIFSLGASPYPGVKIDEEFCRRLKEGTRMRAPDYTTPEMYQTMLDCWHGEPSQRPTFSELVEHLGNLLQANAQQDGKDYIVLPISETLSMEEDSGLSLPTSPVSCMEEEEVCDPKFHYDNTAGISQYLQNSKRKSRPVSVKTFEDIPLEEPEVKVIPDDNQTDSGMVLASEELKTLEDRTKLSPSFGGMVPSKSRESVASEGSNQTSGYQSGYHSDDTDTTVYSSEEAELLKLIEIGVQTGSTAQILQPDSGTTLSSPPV
Sequence of PDGFRβ (cytoplasmic domain PDGFR-b protein) (P09619 554-1106): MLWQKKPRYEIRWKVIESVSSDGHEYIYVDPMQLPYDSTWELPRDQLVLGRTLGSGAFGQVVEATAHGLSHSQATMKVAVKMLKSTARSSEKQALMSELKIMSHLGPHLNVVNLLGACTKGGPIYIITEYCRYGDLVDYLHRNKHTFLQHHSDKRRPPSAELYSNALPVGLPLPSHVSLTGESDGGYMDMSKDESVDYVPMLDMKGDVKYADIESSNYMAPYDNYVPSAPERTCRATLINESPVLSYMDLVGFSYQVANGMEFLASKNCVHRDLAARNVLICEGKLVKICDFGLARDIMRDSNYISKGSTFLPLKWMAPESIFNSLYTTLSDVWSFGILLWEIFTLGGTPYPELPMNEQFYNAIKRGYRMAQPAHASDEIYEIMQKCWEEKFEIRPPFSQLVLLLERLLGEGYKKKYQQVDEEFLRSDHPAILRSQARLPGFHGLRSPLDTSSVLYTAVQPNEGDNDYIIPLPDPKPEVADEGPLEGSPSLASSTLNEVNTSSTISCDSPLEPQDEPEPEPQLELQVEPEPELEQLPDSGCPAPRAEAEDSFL

| IC50 [1] [nM] | IC50 [2] [nM] | IC50 (VEGFR2) [nM] | IC50 (PDGFRβ) [nM] | SMILES |
| --- | --- | --- | --- | --- |
| 448 | 93 | 8420 | – | O=C(Nc1ccc(C#Cc2ccc3nccn3n2)cc1)Nc1cc(C(F)(F)F)ccc1F [Example 9, 1-[2-fluoro-5-(trifluoromethyl)phenyl]-3-[4-(imidazo[1,2-b]pyridazin-6-ylethynyl)phenyl]urea] |
| 90 | – | 162 | – | Cc1ccc(F)c(NC(=O)Nc2ccc(C#Cc3cccc4[nH]nc(N)c34)cc2)c1 [Example 33, 1-{4-[(3-amino-1H-indazol-4-yl)ethynyl]phenyl}-3-(2-fluoro-5-methylphenyl)urea] |
| 21 | – | 16 | – | Cc1ccc(F)c(NC(=O)Nc2cccc(C#Cc3cccc4[nH]nc(N)c34)c2)c1 [Example 31, 1-{3-[(3-amino-1H-indazol-4-yl)ethynyl]phenyl}-3-(2-fluoro-5-methylphenyl)urea] |
| 1800 | > 10000 | – | – | Cc1ccc(F)c(NC(=O)Nc2ccccc2C#Cc2ccc3nccn3n2)c1 [Example 30, 1-(2-fluoro-5-methylphenyl)-3-[2-(imidazo[1,2-b]pyridazin-6-ylethynyl)phenyl]urea] |
| 1620 | 6080 | 3040 | > 10000 | Cc1ccc(F)c(C(=O)Nc2cccc(C#Cc3ccc4nccn4n3)c2)c1 [Example 26, 2-fluoro-N-[3-(imidazo[1,2-b]pyridazin-6-ylethynyl)phenyl]-5-methylbenzamide] |
| 101 | – | – | – | Cc1ccc(F)c(NC(=O)Nc2ccc(C#Cc3ccc4nccn4n3)cc2)c1 [Example 6, 1-(2-fluoro-5-methylphenyl)-3-[4-(imidazo[1,2-b]pyridazin-6-ylethynyl)phenyl]urea] |
| 4700 | > 10000 | – | – | Cc1ccc(F)c(NC(=O)Nc2cccc(C#Cc3ccc4nccn4n3)c2)c1 [Example 29, 1-(2-fluoro-5-methylphenyl)-3-[3-(imidazo[1,2-b]pyridazin-6-ylethynyl)phenyl]urea] |
| 295 | 1530 | 862 | – | Cc1cccc(C(=O)Nc2cccc(C#Cc3ccc4nccn4n3)c2)c1 [Example 23, N-[3-(imidazo[1,2-b]pyridazin-6-ylethynyl)phenyl]-3-methylbenzamide] |
| 127 | 43 | 2050 | – | O=C(Nc1ccc(C#Cc2ccc3nccn3n2)cc1)Nc1ccc(Cl)c(C(F)(F)F)c1 [Example 7, 1-[4-chloro-3-(trifluoromethyl)phenyl]-3-[4-(imidazo[1,2-b]pyridazin-6-ylethynyl)phenyl]urea] |
| 1310 | – | > 10000 | > 10000 | Cc1cccc(NC(=O)Nc2ccc(C#Cc3ccc4nc(NC(=O)C5CC5)cn4n3)cc2)c1 [Example 12, N-(6-{[4-({[(3-methylphenyl)amino]carbonyl}amino)phenyl]ethynyl}imidazo[1,2-b]pyridazin-2-yl)cyclopropanecarboxamide] |
| 1430 | > 10000 | > 10000 | > 10000 | O=C(Nc1ccc(C#Cc2ccc3nc(NC(=O)Nc4cc(C(F)(F)F)ccc4F)cn3n2)cc1)Nc1cc(C(F)(F)F)ccc1F [Example 10, 1-[2-fluoro-5-(trifluoromethyl)phenyl]-3-[4-({2-[({[2-fluoro-5-(trifluoromethyl)phenyl]amino}carbonyl)amino]imidazo[1,2-b]pyridazin-6-yl}ethynyl)phenyl]urea] |
| 279 | 628 | 1280 | 1630 | O=C(Nc1cccc(C#Cc2ccc3nccn3n2)c1)c1cccc(C(F)(F)F)c1 [Example 22, N-[3-(imidazo[1,2-b]pyridazin-6-ylethynyl)phenyl]-3-(trifluoromethyl)benzamide] |
| 1610 | 2720 | > 10000 | > 10000 | O=C(Nc1cccc(C#Cc2ccc3nccn3n2)c1)c1cc2ccccc2o1 [Example 25, N-[3-(imidazo[1,2-b]pyridazin-6-ylethynyl)phenyl]-1-benzofuran-2-carboxamide] |
| – | 67 | – | – | Cc1ccc(NC(=O)Nc2ccc(C#Cc3ccc4nccn4n3)cc2)cc1 [Example 13, 1-[4-(imidazo[1,2-b]pyridazin-6-ylethynyl)phenyl]-3-(4-methylphenyl)urea] |
| 1250 | > 10000 | > 10000 | > 10000 | Nc1cn2nc(C#Cc3ccc(NC(=O)c4ccccc4)cc3)ccc2n1 [Example 19, N-{4-[(2-aminoimidazo[1,2-b]pyridazin-6-yl)ethynyl]phenyl}benzamide] |
| 88 | 767 | 1120 | 371 | Cc1ccc(F)c(C(=O)Nc2cccc(C#Cc3ccc4nc(N)cn4n3)c2)c1 [Example 21, N-{3-[(2-aminoimidazo[1,2-b]pyridazin-6-yl)ethynyl]phenyl}-2-fluoro-5-methylbenzamide] |
| 464 | 938 | 1460 | 2680 | O=C(Nc1cccc(C#Cc2ccc3nccn3n2)c1)c1ccc(F)c(Cl)c1 [Example 24, 3-chloro-4-fluoro-N-[3-(imidazo[1,2-b]pyridazin-6-ylethynyl)phenyl]benzamide] |
| 73 | 55 | 423 | 516 | Nc1cn2nc(C#Cc3ccc(NC(=O)Nc4cc(C(F)(F)F)ccc4F)cc3)ccc2n1 [Example 4, 1-{4-[(2-aminoimidazo[1,2-b]pyridazin-6-yl)ethynyl]phenyl}-3-[2-fluoro-5-(trifluoromethyl)phenyl]urea] |
| 41 | – | 20 | – | Nc1n[nH]c2cccc(C#Cc3cccc(NC(=O)Nc4ccccc4)c3)c12 [Example 32, 1-{3-[(3-amino-1H-indazol-4-yl)ethynyl]phenyl}-3-phenylurea] |
| 267 | 185 | 5430 | – | O=C(Nc1ccccc1)Nc1ccc(C#Cc2ccc3nccn3n2)cc1 [Example 8, 1-[4-(imidazo[1,2-b]pyridazin-6-ylethynyl)phenyl]-3-phenylurea] |
| 3180 | – | > 10000 | > 10000 | CC(=O)Nc1cn2nc(C#Cc3ccc(NC(=O)Nc4cccc(C)c4)cc3)ccc2n1 [Example 11, N-(6-{[4-({[(3-methylphenyl)amino]carbonyl}amino)phenyl]ethynyl}imidazo[1,2-b]pyridazin-2-yl)acetamide] |
| 96 | – | – | – | O=C(Nc1ccc(C#Cc2ccc3nccn3n2)cc1)Nc1ccc(F)c(Cl)c1 [Example 5, 1-(3-chloro-4-fluorophenyl)-3-[4-(imidazo[1,2-b]pyridazin-6-ylethynyl)phenyl]urea] |
